From publication PMC6796924 (ACS Omega, 2019)
Several values for one entry are separate records, joined by “and”; a condition that tells them apart may be missing. Equal values may be shown once. Each block holds one compound with its values, some of them ahead of it.

Tests used:
[1] = Solubility studies of K-604 in different vehicles; format: physicochemical
[2] = pH 6.8; cited from earlier work
[3] = PK study after oral administration; format: in vivo, mice
[4] = PK study after intranasal administration; format: in vivo, mice; settings: for concentration at 5 min / concentration at 15 min / concentration at 30 min / concentration at 45 min: other: intranasal, drug concentration in plasma; for Tmax at 7 days / Cmax at 7 days: 32.4 ug; for AUC(0-t): AUC0–t; for half-life: T1/2, plasma
[5] = In vitro BBB permeability, BBB Kit; format: in vitro ADME; settings: Wistar, rat
[6] = female, ICR, mouse, cerebellum, po, 6 mg/kg
[7] = female, ICR, mouse, cerebrum, po, 6 mg/kg
[8] = female, ICR, mouse, plasma, po, 6 mg/kg
[9] = single oral 6 mg/kg (166 μg/mouse), 0.01 N HCl solution, mice
[10] = 0.01 N HCl solution, 32.4 μg/mouse intranasal vs oral 166 μg/mouse, cerebrum
[11] = CA solution, 108 μg/mouse intranasal vs oral 166 μg/mouse, cerebrum
[12] = GA solution, 108 μg/mouse intranasal vs oral 166 μg/mouse, cerebrum
[13] = HA solution, 108 μg/mouse intranasal vs oral 166 μg/mouse, cerebrum
[14] = female, Crl:CDI (ICR), mouse, plasma, 32.4 μg, repeated intranasal, 0.01 N HCl solution, 10 μL, mice
[15] = female, Crl:CDI (ICR), mouse, plasma, 162 μg, repeated (7 days) intranasal, 0.01 N HCl solution, 50 μL, mice
[16] = female, ICR, mouse, plasma, inhaled or intranasal, 108 ug, single intranasal, CA solution, 108 μg/10 μL, mice
[17] = female, ICR, mouse, plasma, inhaled or intranasal, 108 ug, single intranasal, GA solution, 108 μg/10 μL, mice
[18] = female, ICR, mouse, plasma, inhaled or intranasal, 108 ug, single intranasal, HA solution, 108 μg/10 μL, mice
[19] = repeated (7 days) intranasal, 0.01 N HCl solution, 32.4 μg/10 μL, mice
[20] = single intranasal, CA solution, 108 μg/10 μL, mice
[21] = single intranasal, GA solution, 108 μg/10 μL, mice
[22] = single intranasal, HA solution, 108 μg/10 μL, mice

solubility at 24 h ([1]; CA aqueous solution (additive 7.7 mg, 0.04 M), pH 3, thermodynamic from solid): 10.8 mg/mL
solubility at 24 h ([1]; GA aqueous solution (additive 4 mg, 0.04 M), pH 3.6, thermodynamic from solid): 10.8 mg/mL
solubility at 24 h ([1]; HA aqueous solution (additive 5 mg), pH 3.8, thermodynamic from solid): 10.8 mg/mL
solubility ([1]; water, pH 6.8, water): 0.05 mg/mL
Cmax [3, 6]: 0.7 ± 0.3 ng/g
Tmax [3, 6]: 15 min
Cmax [3, 7]: 0.8 ± 0.4 ng/g
Tmax [3, 7]: 15 min
AUC(0-t) [3, 8]: 3.29 ng·h/mL
Cmax [3, 8]: 6.2 ± 3.1 ng/mL
Tmax [3, 8]: 15 min
AUC0–t, cerebellum [3, 9]: 5.4 ± 4.9 ng·min/g
AUC0–t, olfactory bulb [3, 9]: 0 ± 0 ng·min/g
drug concentrations in the olfactory bulb tissue, all time points ([3]; single oral 6 mg/kg, mice, LLOQ 1 ng/g): less than the LLOQ
intranasal AUC BTE index [4, 10]: 211
intranasal Cmax BTE index [4, 10]: 134
drug concentration in plasma relative to cerebral tissue, fold higher ([4]; 5 to 45 min, repeated intranasal, 0.01 N HCl solution, 50 μL, mice): 6- to 10 fold
intranasal AUC BTE index [4, 11]: 133
intranasal Cmax BTE index [4, 11]: 90
intranasal AUC BTE index [4, 12]: 100
intranasal Cmax BTE index [4, 12]: 61
intranasal AUC BTE index [4, 13]: 137
intranasal Cmax BTE index [4, 13]: 75
Tmax ([4]; female, Crl:CD1 (ICR), mouse, cerebrum, inhaled or intranasal, 108 ug): 15 min
Tmax ([4]; female, Crl:CD1 (ICR), mouse, olfactory bulb, inhaled or intranasal, 108 ug): 15 min
Tmax ([4]; female, Crl:CD1 (ICR), mouse, plasma, inhaled or intranasal, 108 ug): 5 min
Cmax ([4]; female, Crl:CDI (ICR), mouse, cerebrum, inhaled or intranasal, 162 ug, cerebrum, repeated (7 days) intranasal, 0.01 N HCl solution, 162 μg/50 μL, mice): 83 ng/g
Cmax ([4]; female, Crl:CDI (ICR), mouse, cerebrum, inhaled or intranasal, 162 ug, cerebrum, single intranasal, 0.01 N HCl solution, 162 μg/50 μL, mice): 66 ng/g
Cmax ([4]; female, Crl:CDI (ICR), mouse, olfactory bulb, inhaled or intranasal, 162 ug, olfactory bulb, repeated (7 days) intranasal, 0.01 N HCl solution, 162 μg/50 μL, mice): 285 ng/g
Cmax ([4]; female, Crl:CDI (ICR), mouse, olfactory bulb, inhaled or intranasal, 162 ug, olfactory bulb, single intranasal, 0.01 N HCl solution, 162 μg/50 μL, mice): 406 ng/g
AUC ([4]; female, Crl:CDI (ICR), mouse, plasma, inhaled or intranasal, 162 ug): 345 ng·h/mL
Cmax ([4]; female, Crl:CDI (ICR), mouse, plasma, inhaled or intranasal, 162 ug, plasma, repeated (7 days) intranasal, 0.01 N HCl solution, 162 μg/50 μL, mice): 870 ng/mL
Cmax ([4]; female, Crl:CDI (ICR), mouse, plasma, inhaled or intranasal, 162 ug, plasma, single intranasal, 0.01 N HCl solution, 162 μg/50 μL, mice): 574 ng/mL
concentration at 5 min [4, 14]: 142 ng/mL
concentration at 15 min [4, 14]: 90 ng/mL
concentration at 30 min [4, 14]: 33 ng/mL
concentration at 45 min [4, 14]: 10 ng/mL
concentration at 5 min [4, 15]: 870 ng/mL
concentration at 15 min [4, 15]: 449 ng/mL
concentration at 30 min [4, 15]: 250 ng/mL
concentration at 45 min [4, 15]: 77 ng/mL
Tmax at 7 days ([4]; female, ICR, mouse, cerebrum, inhaled or intranasal): 5 min
Cmax at 7 days ([4]; female, ICR, mouse, cerebrum, inhaled or intranasal, repeated (7 days) intranasal, 0.01 N HCl solution, 32.4 μg/10 μL, mice): 21 ± 10 ng/g
Tmax ([4]; female, ICR, mouse, cerebrum, inhaled or intranasal, 108 ug): 5 min
Cmax ([4]; female, ICR, mouse, cerebrum, inhaled or intranasal, 108 ug, single intranasal, CA solution, 108 μg/10 μL, mice): 47 ± 29 ng/g
Cmax ([4]; female, ICR, mouse, cerebrum, inhaled or intranasal, 108 ug, single intranasal, GA solution, 108 μg/10 μL, mice): 32 ± 7 ng/g
Cmax ([4]; female, ICR, mouse, cerebrum, inhaled or intranasal, 108 ug, single intranasal, HA solution, 108 μg/10 μL, mice): 39 ± 11 ng/g
Tmax at 7 days ([4]; female, ICR, mouse, olfactory bulb, inhaled or intranasal): 5 min
Cmax at 7 days ([4]; female, ICR, mouse, olfactory bulb, inhaled or intranasal, repeated (7 days) intranasal, 0.01 N HCl solution, 32.4 μg/10 μL, mice): 156 ± 131 ng/g
Tmax ([4]; female, ICR, mouse, olfactory bulb, inhaled or intranasal, 108 ug): 5 min
Cmax ([4]; female, ICR, mouse, olfactory bulb, inhaled or intranasal, 108 ug, single intranasal, CA solution, 108 μg/10 μL, mice): 351 ± 112 ng/g
Cmax ([4]; female, ICR, mouse, olfactory bulb, inhaled or intranasal, 108 ug, single intranasal, GA solution, 108 μg/10 μL, mice): 160 ± 24 ng/g
Cmax ([4]; female, ICR, mouse, olfactory bulb, inhaled or intranasal, 108 ug, single intranasal, HA solution, 108 μg/10 μL, mice): 274 ± 100 ng/g
Tmax at 7 days ([4]; female, ICR, mouse, plasma, inhaled or intranasal): 5 min
Cmax at 7 days ([4]; female, ICR, mouse, plasma, inhaled or intranasal, repeated (7 days) intranasal, 0.01 N HCl solution, 32.4 μg/10 μL, mice): 146 ± 20 ng/mL
Tmax ([4]; female, ICR, mouse, plasma, inhaled or intranasal, 108 ug): 5 min
AUC(0-t) [4, 16]: 165 ng·h/mL
AUC(0-t) [4, 17]: 121 ng·h/mL
AUC(0-t) [4, 18]: 170 ng·h/mL
Cmax [4, 16]: 283 ± 121 ng/mL
Cmax [4, 17]: 217 ± 51 ng/mL
Cmax [4, 18]: 274 ± 30 ng/mL
half-life [4, 16]: 13.4 ± 1.7 min
half-life [4, 17]: 16.6 ± 2.9 min
half-life [4, 18]: 17.4 ± 2.1 min
AUC0–t, cerebrum [4, 19]: 367 ng·min/g and 367 ± 121 ng·min/g
AUC0–t, olfactory bulb [4, 19]: 2113 ± 1380 ng·min/g
AUC0–t, cerebrum [4, 20]: 772 ng·min/g and 772 ± 223 ng·min/g
AUC0–t, olfactory bulb [4, 20]: 3976 ± 642 ng·min/g
Tmax, plasma [4, 20]: 5 min
AUC0–t, cerebrum [4, 21]: 579 ng·min/g and 579 ± 137 ng·min/g
AUC0–t, olfactory bulb [4, 21]: 3406 ± 2127 ng·min/g
AUC0–t, cerebrum [4, 22]: 791 ng·min/g and 791 ± 160 ng·min/g
AUC0–t, olfactory bulb [4, 22]: 5200 ± 1036 ng·min/g
Papp at 30 min, 1 μM [5]: 21.9 ×10⁻⁶ cm/s
Structure (SMILES): CSc1cc(C)nc(SC)c1NC(=O)CN1CCN(CCSc2nc3ccccc3[nH]2)CC1.Cl [K-604, 2-(4-(2-((1H-Benzo[d]imidazol-2-yl)thio)ethyl)piperazin-1-yl)-N-(6-methyl-2,4-bis(methylthio)pyridin-3-yl)acetamide hydrochloride]
Aqueous solubility [2]: 0.05 mg/mL
AUC0–t, cerebrum ([3]; single oral 6 mg/kg (166 μg/mouse), 0.01 N HCl solution, mice, 6 mg/kg): 8.9 ng·min/g and 9 ng·min/g and 8.9 ± 7.4 ng·min/g
drug concentrations in cerebrum and cerebellum tissue at 60 min ([3]; single oral 6 mg/kg, mice, LLOQ 0.5 ng/g): less than the lower limit of quantification (LLOQ)

Papp at 30 min, 1 μM [5]: 47.8 ×10⁻⁶ cm/s
Structure (SMILES): NC(=O)N1c2ccccc2C=Cc2ccccc21 [carbamazepine, 5H-dibenzo[b,f]azepine-5-carboxamide, reference compound]
